From patent US8389679B2, “Targeted antimicrobial moieties” (priority 2009, dated 2013) come the findings set out here.

“Also recorded” adds a separate entry of the source. Read-outs that look alike come from different tables or passages of the source. Where a SMILES comes first, the peptide text is derived from it.

In one assay the test system is target microorganisms. In words: Screen of synthesized peptides for binding to target microorganisms (targeting peptides, Tables 2 and 3). To be noted: microorganism(s) the targeting peptide was identified as binding to (Table 3). How it is done:
Once noted, these peptides were batch synthesized on a multiplex peptide synthesizer, yielding 5-10 mg of each peptide that could readily be screened for biological activity (e.g., binding activity and/or antimicrobial activity.
Other suitable targeting peptides include the peptides that have been identified as binding to particular target organisms as shown in Table 3 and/or Table 4.

Turning to “1T-144 (IIELHPKSWTQDWRCSFL; synthetic novel tartgeting peptide IT-144)”, the “Target(s)” value in the assay on target microorganisms was “A. naeslundii, F. nucleatum,; also recorded: P. gingivalis,; also recorded: T. denticolaS. gordonii,; also recorded: S. mitis, S. mutans, S. oralis,; also recorded: S. salivarious, S. sanguinis”. On the same count and under the same terms, the entry for “1T-145 (VEAGKRNISLENIEKISKGLGISISELFKYIEEGEDKIG; synthetic novel tartgeting peptide IT-145)” is “S. mitis, S. mutans, S. oralis”; for “1T-146 (RNSADNQTKIDKIRIDISLWDEHLNIVKQGK; synthetic novel tartgeting peptide IT-146)” it is “A. naeslundii, F. nucleatum,; also recorded: P. gingivalis,; also recorded: T. denticolaS. gordonii,; also recorded: S. mitis, S. mutans, S. oralis,; also recorded: S. salivarious, S. sanguinis”. Still for that read-out and setting: the entry for “1T-147 (GVENRRFYERDVSKVSMMTSEAVAPRGGSK; synthetic novel tartgeting peptide IT-147)” is “A. naeslundii, F. nucleatum,; also recorded: P. gingivalis,; also recorded: T. denticolaS. gordonii,; also recorded: S. mitis, S. mutans, S. oralis,; also recorded: S. salivarious, S. sanguinis”; for “1T-148 (IVELDDTTILERALSMLGEANA; synthetic novel tartgeting peptide IT-148)” it is “A. naeslundii, F. nucleatum,; also recorded: P. gingivalis,; also recorded: T. denticolaS. gordonii,; also recorded: S. mitis, S. mutans, S. oralis,; also recorded: S. salivarious, S. sanguinis”; for “1T-149 (SVRAVKPIDETVARHFPGDFIVN; synthetic novel tartgeting peptide IT-149)” it is “A. naeslundii, F. nucleatum,; also recorded: P. gingivalis,; also recorded: T. denticolaS. gordonii,; also recorded: S. mitis, S. mutans, S. oralis,; also recorded: S. salivarious, S. sanguinis”. “1T-150 (YINRRLKKAFSDADIKEAPAEFYEELRRVQYV; synthetic novel tartgeting peptide IT-150)”: in the assay with target microorganisms, the “Target(s)” value is “A. naeslundii, F. nucleatum,; also recorded: P. gingivalis,; also recorded: T. denticolaS. gordonii,; also recorded: S. mitis, S. mutans, S. oralis,; also recorded: S. salivarious, S. sanguinis”. In the case of “1T-151 (SVRAVKPIDEIVAWHFPGDFIVN; synthetic novel tartgeting peptide IT-151)”, the “Target(s)” value with target microorganisms was “A. naeslundii, F. nucleatum,; also recorded: P. gingivalis,; also recorded: T. denticolaS. gordonii,; also recorded: S. mitis, S. mutans, S. oralis,; also recorded: S. salivarious, S. sanguinis”. For the molecule “1T-152 (YVSADESAYNHIVTDDIPLADRRIEAVQQ; synthetic novel tartgeting peptide IT-152)”, in the assay with target microorganisms, the “Target(s)” value is given as “A. naeslundii, F. nucleatum,; also recorded: P. gingivalis; also recorded: S. epidermidis,; also recorded: S. gordonii, S. mitis, S. mutans,; also recorded: S. oralis, S. salivarious,; also recorded: S. sanguinis”. Turning to “1T-153 (YIACPGYFY; synthetic novel tartgeting peptide IT-153)”, the “Target(s)” value in the assay on target microorganisms is “A. naeslundii, F. nucleatum,; also recorded: P. gingivalis; also recorded: S. epidermidis,; also recorded: S. gordonii, S. mitis, S. mutans,; also recorded: S. oralis, S. salivarious,; also recorded: S. sanguinis”.

“1T-154 (YFSFLEIVGMARR; synthetic novel tartgeting peptide IT-154)”: the “Target(s)” value in the assay on target microorganisms is on record as “P. gingivalis”. Take “1T-155 (LKLAFGVYPFQAMSQSDTAVSERNVLWR; synthetic novel tartgeting peptide IT-155)”: the “Target(s)” value in the assay with target microorganisms is listed as “A. naeslundii, F. nucleatum,; also recorded: P. gingivalis; also recorded: S. epidermidis,; also recorded: S. gordonii, S. mitis, S. mutans,; also recorded: S. oralis, S. salivarious,; also recorded: S. sanguinis”. Take “1T-156 (GRFQISIRGEEKSKVKVQGKGTFTDRNTT; synthetic novel tartgeting peptide IT-156)”: in the assay with target microorganisms, the “Target(s)” value is on record as “A. naeslundii, F. nucleatum,; also recorded: P. gingivalis,; also recorded: T. denticolaS. gordonii,; also recorded: S. mitis, S. mutans, S. oralis,; also recorded: S. salivarious, S. sanguinis”. Consider “1T-157 (RRFRKTTENREKSKNKKAVLGLSTTSTASY; synthetic novel tartgeting peptide IT-157)”, for which the “Target(s)” value with target microorganisms is listed as “A. naeslundii, F. nucleatum,; also recorded: P. gingivalis,; also recorded: T. denticolaS. gordonii,; also recorded: S. mitis, S. mutans, S. oralis,; also recorded: S. salivarious, S. sanguinis”.

Take “1T-158 (WENKPSPLGSIKKLQGLVYRLIGYRHFWV; synthetic novel tartgeting peptide IT-158)”: the “Target(s)” value in the assay with target microorganisms is “A. naeslundii, F. nucleatum,; also recorded: P. gingivalis; also recorded: S. epidermidis,; also recorded: S. gordonii, S. mitis, S. mutans,; also recorded: S. oralis, S. salivarious,; also recorded: S. sanguinis”.

Regarding “1T-159 (IFSLHHFALICSEMGTFAVSKRAKYKWEVL; synthetic novel tartgeting peptide IT-159)”, in the assay on target microorganisms, the “Target(s)” value is “P. gingivalis”. On to “1T-160 (AQYKYINKLLN; synthetic novel tartgeting peptide IT-160)”, for which, in the assay on target microorganisms, the “Target(s)” value is “A. naeslundii, F. nucleatum,; also recorded: P. gingivalis,; also recorded: T. denticolaS. gordonii,; also recorded: S. mitis, S. mutans, S. oralis,; also recorded: S. salivarious, S. sanguinis”. For the molecule “1T-161 (NKVLQVEVMWDGSVVGRPAGVISIKSSKKG; synthetic novel tartgeting peptide IT-161)”, the “Target(s)” value with target microorganisms was “A. naeslundii, F. nucleatum,; also recorded: P. gingivalis; also recorded: S. epidermidis,; also recorded: S. gordonii, S. mitis, S. mutans,; also recorded: S. oralis, S. salivarious,; also recorded: S. sanguinis”. On the same count and under the same terms, the entry for “1T-162 (QKAKEESDRKAAVSYNGFHRVNVVSIPK; synthetic novel tartgeting peptide IT-162)” is “A. naeslundii, F. nucleatum,; also recorded: P. gingivalis,; also recorded: T. denticolaS. gordonii,; also recorded: S. mitis, S. mutans, S. oralis,; also recorded: S. salivarious, S. sanguinis”. For the molecule “1T-163 (MENILIYIPMVLSPFGSGILLFLGKDRRYML; synthetic novel tartgeting peptide IT-163)”, the “Target(s)” value in the assay with target microorganisms was “A. naeslundii, F. nucleatum,; also recorded: P. gingivalis; also recorded: S. epidermidis,; also recorded: S. gordonii, S. mitis, S. mutans,; also recorded: S. oralis, S. salivarious,; also recorded: S. sanguinis”. With “1T-164 (KKSHSQGKRKLKDLNSAYKIDNQLHYALR; synthetic novel tartgeting peptide IT-164)”, in the assay on target microorganisms, the “Target(s)” value is “A. naeslundii, F. nucleatum,; also recorded: P. gingivalis; also recorded: S. epidermidis,; also recorded: S. gordonii, S. mitis, S. mutans,; also recorded: S. oralis, S. salivarious,; also recorded: S. sanguinis”.

In the case of “1T-165 (CYDSFDFSIFVTFANRMKLSVGS; synthetic novel tartgeting peptide IT-165)”, the “Target(s)” value in the assay on target microorganisms is on record as “A. naeslundii, F. nucleatum,; also recorded: P. gingivalis; also recorded: S. epidermidis,; also recorded: S. gordonii, S. mitis, S. mutans,; also recorded: S. oralis, S. salivarious,; also recorded: S. sanguinis”. Take “1T-166 (AQSAGQIKRKSKVRIHV; synthetic novel tartgeting peptide IT-166)”: in the assay with target microorganisms, the “Target(s)” value was “A. naeslundii, F. nucleatum,; also recorded: P. gingivalis; also recorded: S. epidermidis,; also recorded: S. gordonii, S. mitis, S. mutans,; also recorded: S. oralis, S. salivarious,; also recorded: S. sanguinis”. The same measure, in the same setting: the entry for “1T-167 (SRMSEHSPAGLVFEVGPMDKGSFIILDSYHPTVKK; synthetic novel tartgeting peptide IT-167)” is “A. naeslundii, F. nucleatum,; also recorded: P. gingivalis; also recorded: S. epidermidis,; also recorded: S. gordonii, S. mitis, S. mutans,; also recorded: S. oralis, S. salivarious,; also recorded: S. sanguinis”. Turning to “1T-168 (ELHRIMSTEKIGAVTKMNFDTAPIMSILPIDIYPKEVGIGS; synthetic novel tartgeting peptide IT-168)”, the “Target(s)” value in the assay on target microorganisms is given as “A. naeslundii, F. nucleatum,; also recorded: P. gingivalis; also recorded: S. epidermidis,; also recorded: S. gordonii, S. mitis, S. mutans,; also recorded: S. oralis, S. salivarious,; also recorded: S. sanguinis”. Same read-out and setting: the entry for “1T-169 (FARVRRLHQNRILTQPLTNLKYCLRQPIYSD; synthetic novel tartgeting peptide IT-169)” is “A. naeslundii, F. nucleatum,; also recorded: P. gingivalis; also recorded: S. epidermidis,; also recorded: S. gordonii, S. mitis, S. mutans,; also recorded: S. oralis, S. salivarious,; also recorded: S. sanguinis”; for “1T-170 (AYGKVFSMDIMLSENDKLIVLRISHHSAWH; synthetic novel tartgeting peptide IT-170)” it is “P. gingivalis”. As to `CC[C@H](C)[C@H](NC(=O)[C@H](Cc1ccccc1)NC(=O)CCCCCCCNC(=O)[C@H](Cc1ccccc1)NC(=O)[C@H](Cc1c[nH]cn1)NC(=O)[C@H](CC(C)C)NC(=O)[C@H](Cc1c[nH]cn1)NC(=O)[C@H](Cc1ccccc1)NC(=O)[C@H](Cc1c[nH]cn1)NC(=O)[C@@H](N)Cc1ccccc1)C(=O)N[C@@H](CCCCN)C(=O)N[C@@H](Cc1c[nH]cn1)C(=O)N[C@@H](Cc1ccccc1)C(=O)N[C@H](C(=O)N[C@@H](Cc1c[nH]cn1)C(=O)N[C@@H](CCCNC(=N)N)C(=O)N[C@@H](Cc1ccccc1)C(N)=O)[C@@H](C)CC` [135(LC)2_1, FHFHLHF-[NH(CH2)7CO]-FIKHFIHRF] (HELM PEPTIDE1{F.H.F.H.L.H.F.[O=C(CCCCCCCN[*:1])[*:2]].F.I.K.H.F.I.H.R.F.[am]}$$$$V2.0; N-terminus assumed), the “S. mutans (MIC)” value in the assay on S. mutans was 64 µg/mL. As for `CC[C@H](C)[C@H](NC(=O)[C@H](Cc1ccccc1)NC(=O)CNC(=O)CNC(=O)CNC(=O)[C@H](Cc1ccccc1)NC(=O)[C@H](Cc1c[nH]cn1)NC(=O)[C@H](CC(C)C)NC(=O)[C@H](Cc1c[nH]cn1)NC(=O)[C@H](Cc1ccccc1)NC(=O)[C@H](Cc1c[nH]cn1)NC(=O)[C@H](Cc1ccccc1)NC(=O)c1ccccc1)C(=O)N[C@@H](CCCCN)C(=O)N[C@@H](Cc1c[nH]cn1)C(=O)N[C@@H](Cc1ccccc1)C(=O)N[C@H](C(=O)N[C@@H](Cc1c[nH]cn1)C(=O)N[C@@H](CCCNC(=N)N)C(=O)N[C@@H](Cc1ccccc1)C(N)=O)[C@@H](C)CC` [bz135(L1)2_1, benzoate-FHFHLHFGGGFIKHFIHRF] (HELM PEPTIDE1{[O=C(c1ccccc1)[*:2]].F.H.F.H.L.H.F.G.G.G.F.I.K.H.F.I.H.R.F.[am]}$$$$V2.0), the “S. mutans (MIC)” value in the assay with S. mutans (Library 2 STAMPs, all S. mutans isolates tested, minimum of three independent trials) was found to be 32 µg/mL.
